This is an account of results in patent US8911713B2, “Method for preventing or treating skin tumor” (Galderma Research & Development, priority 2010, dated 2014).

In the assay the test system is UV-induced skin tumor. The settings on record: for Tumor Yield (≧1 mm): average number of tumors per survivor; for Median Week to Tumor (≧1 mm): 100 μL/mouse, 5 days/wk, + 600 RBU/week UVR, 40 weeks + 12 weeks observation. The method, then: Albino hairless SKH1-hr mice (36/sex/group) were treated for 40 weeks with UVR and brimonidine gel or vehicle according to the design in table 11. […] Topical treatments were performed approximately one hour before UVR on Monday, Wednesday and Friday of each week and approximately one hour after UVR Tuesday and Thursday of each week.

Read-outs that look alike come from different tables or passages of the source.

Consider `Brc1c(NC2=NCCN2)ccc2nccnc12` [Brimonidine, (5-Bromo-quinoxalin-6-yl)-(4,5-dihydro-1H-imidazol-2-yl)-amine], for which the “Reduction of tumor yield (≧1 mm) compared to the vehicle group” value runs as follows: (0.18% topical + 600 RBU/week UVR) 1.7 fold; (1% topical + 600 RBU/week UVR) 4.7 fold; (2% topical + 600 RBU/week UVR) 8.1 fold. Besides, the “Members of the group that acquired one or more qualifying tumors (≧1 mm) within the 52-week study period” value is recorded as “less than one-half” (1% topical + 600 RBU/week UVR) and “less than one-half” (2% topical + 600 RBU/week UVR). The “Tumor Yield (≧1 mm)” value (Group 2: 0.18% topical + 600 RBU/week UVR) turned out to be 2.40 tumors per survivor, the “Tumor Yield (≧1 mm)” value (Group 3: 1% topical + 600 RBU/week UVR) is listed as 0.85 tumors per survivor and the “Tumor Yield (≧1 mm)” value (Group 4: 2% topical + 600 RBU/week UVR) is given as 0.49 tumors per survivor. Moreover, the “Median Week to Tumor (≧1 mm)” value is, setting by setting: (Group 2: 0.18% topical) 48 Week; (Group 3: 1% topical) above 52 Week; (Group 4: 2% topical) above 52 Week. Besides, the “UV-induced skin tumor formation” value (topical 0.18%, 1% and 2% + 600 RBU/week UVR) is “dose-dependent delay”. The “Sizes of tumors (tumor prevalence by size, FIG. 1)” value (with increasing concentration, topical, sexes combined) is reported as “the sizes of tumors were also reduced”.
